Among the test systems are BT-549 breast; OVCAR-4 ovarian; CAKI-1 renal; MCF7 breast; UO-31 renal; KM12 colon; 786-0 renal; U251 CNS; LOX IMVI melanoma; SF-268 CNS.
What all share (experiment): NCI tumour cell line growth inhibition, 48 h

Drawing on PubChem BioAssay (NCI), this text covers TGI and GI50 for 12 compounds.

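48-hour exposure; five concentrations; linearly interpolated endpoints. Abbreviation: GI50, concentration required for 50% inhibition of growth. TGI: total growth inhibition.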 Where only a bound is given, the exact number is not on record here.

For `O=[N+]([O-])c1ccc2c(c1)nc(Cc1ccccc1)n2C[C@@H]1CCCN2CCCCC12` (stereo not given in full), the TGI in the test with BT-549 breast was more than 100 µM; with OVCAR-4 ovarian, more than 100 µM; with CAKI-1 renal, more than 100 µM; in the test with MCF7 breast, more than 100 µM; in the test with UO-31 renal, 22.8 µM; in the test on KM12 colon, 55.4 µM. Also, the TGI was 47.6 µM with 786-0 renal, more than 100 µM in the test on U251 CNS, 60.2 µM with LOX IMVI melanoma and more than 100 µM with SF-268 CNS.
For the compound `NNC(=O)CC(=O)Nc1ccc(Cl)cc1`, the TGI in the test with BT-549 breast, with OVCAR-4 ovarian, in the test with CAKI-1 renal, in the test with MCF7 breast, with UO-31 renal and in the test on KM12 colon was more than 100 µM each time. For the same compound, the TGI in the test on 786-0 renal, in the test on U251 CNS, with LOX IMVI melanoma and in the test on SF-268 CNS was more than 100 µM each time.
As to `COc1cc2c(cc1OC)C1CN3C(=O)CCC3C(O)C1c1cc(OC)c(OC)cc1-2` (stereo not given), the TGI in the test on BT-549 breast, with OVCAR-4 ovarian, with CAKI-1 renal, in the test with MCF7 breast, with UO-31 renal and in the test with KM12 colon was more than 100 µM each time. In addition, the TGI with 786-0 renal, in the test with U251 CNS, in the test with LOX IMVI melanoma and in the test with SF-268 CNS was more than 100 µM in each case.
In the case of `CC1(C)CCC[C@]2(C)[C@@H]1CC[C@@]13O[C@@H]1C1=C(CO)C(=O)O[C@]14O[C@@H]4[C@@H]23`, the TGI is 31.8 µM with BT-549 breast; 30 µM in the test on OVCAR-4 ovarian; 36.4 µM in the test on CAKI-1 renal; more than 63.9 µM in the test with MCF7 breast; 18.7 µM in the test with UO-31 renal; 63.8 µM in the test with KM12 colon. Also, the TGI stood at 29.8 µM in the test on 786-0 renal, 29.2 µM with U251 CNS, 24 µM in the test on LOX IMVI melanoma and 29.6 µM in the test with SF-268 CNS.
Take `COc1cc(/C=C2\C[C@H]3[C@@H]4CC=C5C[C@@H](N6CCCC6)CC[C@]5(C)[C@H]4CC[C@]3(C)[C@H]2O)cc(OC)c1OC`: the TGI in the test with BT-549 breast stood at 30.1 µM; in the test on OVCAR-4 ovarian it was 51.1 µM; in the test on CAKI-1 renal, 29.8 µM; in the test with MCF7 breast, 22 µM; in the test on UO-31 renal, 6.6 µM; in the test with KM12 colon, 23 µM. Further, the TGI turned out to be 10.8 µM in the test on 786-0 renal, 28.8 µM in the test on U251 CNS, 20.8 µM with LOX IMVI melanoma and 16.5 µM in the test with SF-268 CNS.
Consider `CC1=NN(c2cccc(Cl)c2)C2(C1)C(Cl)C(=O)N2c1nc2ccccc2s1` (stereo not given), for which the TGI in the test on BT-549 breast was 85.9 µM; in the test with OVCAR-4 ovarian, more than 100 µM; in the test with CAKI-1 renal, more than 100 µM; in the test on MCF7 breast, more than 100 µM; in the test on UO-31 renal, 51.1 µM; with KM12 colon it was more than 100 µM. In addition, the TGI in the test on 786-0 renal is 50.6 µM; with U251 CNS, 72.5 µM; with LOX IMVI melanoma, 34.9 µM; in the test with SF-268 CNS, more than 100 µM.
As to `Cc1c(CNc2ccc(Cl)c(C(=O)NC(CC(=O)O)C(=O)O)c2)ccc2nc(N)nc(N)c12` (stereo not given), the GI50 in the test on BT-549 breast was 666 µM; in the test with OVCAR-4 ovarian, 265 µM; in the test with CAKI-1 renal, 617 nM; with UO-31 renal it was 1860 nM; in the test on U251 CNS, 75.8 µM. In addition, the TGI with BT-549 breast, in the test with OVCAR-4 ovarian, with CAKI-1 renal, in the test on MCF7 breast, with UO-31 renal and in the test with KM12 colon was more than 1000 µM each time. The TGI with 786-0 renal, in the test on U251 CNS, in the test on LOX IMVI melanoma and in the test with SF-268 CNS was more than 1000 µM throughout.
With `O=C(O)CC(NC(=O)Nc1ccc([N+](=O)[O-])cc1)C(=O)Nc1ccc([N+](=O)[O-])cc1` (stereo not given), the TGI in the test on BT-549 breast, with OVCAR-4 ovarian, in the test on CAKI-1 renal, in the test with MCF7 breast, in the test on UO-31 renal and in the test with KM12 colon was more than 100 µM in each case. Moreover, the TGI with 786-0 renal, with U251 CNS, in the test with LOX IMVI melanoma and with SF-268 CNS was more than 100 µM in each case.
In the case of `CN(C(=O)C12C3C4(C(=O)O)C1(C(=O)N(C)C(C)(C)C)C1C2(C(=O)O)C3(C(=O)N(C)C(C)(C)C)C14C(=O)N(C)C(C)(C)C)C(C)(C)C` (stereo not given), the TGI in the test on BT-549 breast, in the test with OVCAR-4 ovarian, with CAKI-1 renal, in the test with MCF7 breast, in the test on UO-31 renal and in the test on KM12 colon was more than 100 µM each time. The TGI with 786-0 renal, in the test with U251 CNS, with LOX IMVI melanoma and with SF-268 CNS was more than 100 µM each time.
As to `COc1ccc2oc(S(=O)(=O)N3CC(CCl)c4ccc([N+](=O)[O-])cc43)cc2c1` (stereo not given), the TGI is 16.4 µM in the test on BT-549 breast; more than 100 µM in the test with OVCAR-4 ovarian; 0.239 µM in the test with CAKI-1 renal; 14.4 µM in the test on MCF7 breast; more than 40.3 µM in the test on UO-31 renal; 0.418 µM in the test on KM12 colon. Further, the TGI is 5.47 µM with 786-0 renal, 0.348 µM with U251 CNS, 1.38 µM in the test on LOX IMVI melanoma and more than 39.8 µM in the test with SF-268 CNS.
With `CC1(CCCC2(C)CCNC2=O)OCCO1` (stereo not given), the TGI with BT-549 breast, in the test on OVCAR-4 ovarian, in the test with CAKI-1 renal, with MCF7 breast, in the test with UO-31 renal and in the test on KM12 colon was more than 10 µM throughout. Also, the TGI in the test with 786-0 renal, in the test with U251 CNS, in the test on LOX IMVI melanoma and in the test with SF-268 CNS was more than 10 µM in each case.
For the compound `CN(C)CCCn1c(Cc2ccccc2)nc2cc(C(F)(F)F)ccc21`, the TGI with BT-549 breast is 92.4 µM; with OVCAR-4 ovarian, more than 100 µM; with CAKI-1 renal it was 51.1 µM; with MCF7 breast it was 39.3 µM; in the test with UO-31 renal, 5.32 µM; with KM12 colon, 31.3 µM. In addition, the TGI is 33.9 µM in the test on 786-0 renal, 38.8 µM in the test with U251 CNS, 35.6 µM in the test with LOX IMVI melanoma and more than 100 µM in the test on SF-268 CNS.
